Data set [1] relates to HiBiT-tagged Target C protein in K562 cells. The experiment in a line: HiBiT protein abundance assay, Target C. Format: cell-based, human. Particulars: HiBiT-modified K562 cells, 24 hours, luminescence. The method in brief: (§1)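 K562 lines with the endogenous target HiBiT-tagged, seeded in IMDM+1% FBS, got a 10-point 3-fold dilution series (top final 10 μM, DMSO ≤0.25%) for 24 hours at 37° C. Lytic LgBiT luminescence was normalized against unmodified-K562 and DMSO-only controls, and IC50 was interpolated at 50% from a four-parameter logistic fit.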

The subject of data set [2] is HiBiT-tagged HTT protein in K562 cells. The experiment in a line: HiBiT protein abundance assay, HTT. Format: cell-based, human. Particulars: HiBiT-modified K562 cells, 24 hours, luminescence. A digest of the protocol:
as §1
Background: HiBiT is a short tag that completes a luciferase, so light tracks the accessible tagged protein.

Another data set in a line: in vitro. Particulars: human.
Data set [3] deals with HiBiT-tagged MYB protein in K562 cells. The experiment in a line: HiBiT protein abundance assay, MYB. The class given is cell-based, human. Particulars: HiBiT-modified K562 cells, 24 hours, luminescence. A digest of the protocol:
as §1

The test system of the next data set is MYB CJ mRNA. The experiment in a line: Gene panel canonical junction qPCR assay, MYB. Format: cell-based. Particulars: Homo sapiens, larger gene panel, read-out: MYB IC50 (decrease in CJ mRNA levels). A digest of the protocol: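 A673 or K562 cells treated 24 h with 11-point 3-fold dilutions (top 10 µM, ≤0.25% DMSO) at 37 °C. Canonical exon-junction mRNA measured by probe-based RT-qPCR, normalized to GAPDH, GUSB or PPIA and DMSO (2^−ΔΔCt), converted to percent response over a fixed ΔCt window; IC50 from 4-parameter fit.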

Data set [4] in a line: Cell Titer Glo 2.0 cell viability assay. Particulars: human, K562 cells. (In general: ATP-based viability assays read luminescence as a measure of living cells.)
Protocol: (§2) Compounds described herein were screened for toxicity in K562 (human chronic myelogenous leukemia) cells using a Cell Titer Glo 2.0 assay.
(§3) • Promega CellTiter-Gbo® 2.0 Cell Viability Assay (cat #G9241) • Corning 384-well TC-treated microplates (cat #3570)
(§4) Cells were plated at 500 cells/well (K562 cells) in 45 μL of IMDM supplemented with 10% FBS in a 384-well opaque plate. Wells containing only medium were used as a blank control. Test compounds (e.g., compounds of Formula (I), (II), and (III)) were first serially diluted in DMSO then diluted 1:100 with IMDM+10% FBS. The final concentration of DMSO was 0.1% in each well. The cells were incubated for 72 hours at 37° C. and 5% CO2 before assaying with Cell Titer Glo 2.0 reagent.

Structures can show the parent of a compound that is named as a salt.

Protocol for in vitro: as §2, §3, §4

For the molecule `Cc1cn2nc(-c3cc(=O)n4cc(N(C)C5CC(C)(C)NC(C)(C)C5)sc4n3)cc(C)c2n1` [Compound 205, 7-(2,8-dimethylimidazo[1,2-b]pyridazin-6-yl)-2-(methyl(2,2,6,6-tetramethylpiperidin-4-yl)amino)-5H-thiazolo[3,2-a]pyrimidin-5-one], the IC50 (in data set [1]; in data set [2]; in data set [3]; in the data set with MYB CJ mRNA) was 1000 to 10000 nM throughout. In addition, in the data set “in vitro”, the GI50 (usually the concentration at which growth is held to half of that of the control) at 72 h lay in the range of 1 to 10 µM.

As for `Cc1cn2cc(-c3nn4c(=O)cc(N(C)C5CC(C)(C)NC(C)(C)C5)nc4s3)cc(F)c2n1` [Compound 215, 2-(8-fluoro-2-methylimidazo[1,2-a]pyridin-6-yl)-7-(methyl(2,2,6,6-tetramethylpiperidin-4-yl)amino)-5H-[1,3,4]thiadiazolo[3,2-a]pyrimidin-5-one], the IC50 (as a rule, the concentration that gives 50% inhibition) was greater than 10000 nM in data set [1], greater than 10000 nM in data set [2], 1000 to 10000 nM in data set [3] and 1000 to 10000 nM in the data set with MYB CJ mRNA. Moreover, the GI50 at 72 h in “in vitro” lay in the range of 1 to 10 µM.

For the molecule `Cc1cn2cc(-n3cnc4nc(N(C)C5CC(C)(C)NC(C)(C)C5)sc4c3=O)cc(F)c2n1` [Compound 227, 6-(8-fluoro-2-methylimidazo[1,2-a]pyridin-6-yl)-2-(methyl(2,2,6,6-tetramethylpiperidin-4-yl)amino)thiazolo[4,5-d]pyrimidin-7(6H)-one, formate], the IC50 (in data set [1]; in data set [2]; in data set [3]; in the data set with MYB CJ mRNA) was greater than 10000 nM each time. In the data set “in vitro”, this molecule gave a GI50 at 72 h greater than 10 µM.

For the molecule `Cc1cn2cc(-c3cc4ncn(C5CCNCC5(F)F)c(=O)c4s3)cc(F)c2n1` (stereo not drawn) [Compound 274, 3-(3,3-difluoropiperidin-4-yl)-6-{8-fluoro-2-methylimidazo[1,2-a]pyridin-6-yl}thieno[3,2-d]pyrimidin-4-one], the IC50 (in data set [1]; in data set [2]; in data set [3]; in the data set with MYB CJ mRNA) was greater than 10000 nM throughout. The GI50 at 72 h in data set [4] was greater than 10000 nM.

Consider `Cc1cn2cc(-c3cc4ncn(C5CCCNCC5)c(=O)c4s3)cc(F)c2n1` (stereo not drawn) [Compound 275, 3-(azepan-4-yl)-6-{8-fluoro-2-methylimidazo[1,2-a]pyridin-6-yl}thieno[3,2-d]pyrimidin-4-one], for which the IC50 (in data set [1]; in data set [2]; in data set [3]; in the data set on MYB CJ mRNA) was 100 to 1000 nM in each case. Besides, the GI50 at 72 h in data set [4] fell in the range of 100 to 1000 nM.

For the molecule `Cc1cn2cc(-c3cc4ncn(C5=CCNCC5)c(=O)c4s3)cc(F)c2n1` [Compound 276, 6-{8-fluoro-2-methylimidazo[1,2-a]pyridin-6-yl}-3-(1,2,3,6-tetrahydropyridin-4-yl)thieno[3,2-d]pyrimidin-4-one], the IC50 (in data set [1]; in data set [2]; in data set [3]; in the data set on MYB CJ mRNA) was 100 to 1000 nM in each case. In data set [4], this molecule displayed a GI50 at 72 h of 100 to 1000 nM.

In the case of `Cc1cn2cc(-c3cc4ncn(C5CNCCC5=O)c(=O)c4s3)cc(F)c2n1` (stereo not drawn) [Compound 279, 3-(6-{8-fluoro-2-methylimidazo[1,2-a]pyridin-6-yl}-4-oxothieno [3,2-d]pyrimidin-3-yl)piperidin-4-one], the IC50 (in data set [1]; in data set [2]; in data set [3]; in the data set on MYB CJ mRNA) was greater than 10000 nM in each case. In addition, the GI50 at 72 h in data set [4] was greater than 10000 nM.

As to `Cc1cn2cc(N3CCc4cc(C5CCNCC5)sc4C3=O)cc(F)c2n1` [Compound 800, 6-[8-fluoro-2-methylimidazo[1,2-a]pyridin-6-yl]-2-(piperidin-4-yl)-4H,5H-thieno[2,3-c]pyridin-7-one], the IC50 (in data set [1]; in data set [2]; in data set [3]; in the data set with MYB CJ mRNA) was greater than 10000 nM throughout. The same molecule came in with a GI50 at 72 h in data set [4] greater than 10000 nM.

For the molecule `Cc1cn2cc(-n3ccc4cc(C5CCNCC5)sc4c3=O)cc(F)c2n1` [Compound 801, 6-[8-fluoro-2-methylimidazo[1,2-a]pyridin-6-yl]-2-(piperidin-4-yl)thieno[2,3-c]pyridin-7-one], the IC50 (in data set [1]; in data set [2]; in data set [3]; in the data set with MYB CJ mRNA) was greater than 10000 nM throughout. The GI50 at 72 h in data set [4] is greater than 10000 nM.

As to `Cc1cc(-c2cc3cnn(C4CCNCC4)c(=O)c3s2)cc2cn(C)nc12` [Compound 802, 2-(2,7-dimethyl-2H-indazol-5-yl)-6-(piperidin-4-yl)thieno[2,3-d]pyridazin-7(6H)-one], the IC50 in data set [1] was 100 to 1000 nM; in data set [2], less than 100 nM; in data set [3], 100 to 1000 nM; in the data set with MYB CJ mRNA it was 100 to 1000 nM. The molecule also displayed a GI50 at 72 h in data set [4] of 100 to 1000 nM.

For `Cc1cn2cc(-c3cc4ccn(C5CCNCC5)c(=O)c4s3)cc(F)c2n1` [Compound 804, 2-(8-fluoro-2-methylimidazo[1,2-a]pyridin-6-yl)-6-(piperidin-4-yl)thieno[2,3-c]pyridin-7(6H)-one], the IC50 (in data set [1]; in data set [2]; in data set [3]; in the data set on MYB CJ mRNA) was 100 to 1000 nM in each case. The molecule also gave a GI50 at 72 h in data set [4] of 100 to 1000 nM.

Turning to `Cc1cc(-c2cc3ccn(C4CCNCC4)c(=O)c3s2)cc2cn(C)nc12` [Compound 805, 2-(2,7-dimethyl-2H-indazol-5-yl)-6-(piperidin-4-yl)thieno[2,3-c]pyridin-7(6H)-one], the IC50 (in data set [1]; in data set [2]; in data set [3]; in the data set on MYB CJ mRNA) was 100 to 1000 nM throughout. The GI50 at 72 h in data set [4] fell in the range of 1000 to 10000 nM.

As for `Cc1cn2nc(-c3cc4ccn(C5CCNCC5)c(=O)c4s3)cc(C)c2n1` [Compound 806, 2-(2,8-dimethylimidazo[1,2-b]pyridazin-6-yl)-6-(piperidin-4-yl)thieno[2,3-c]pyridin-7(6H)-one], the IC50 (in data set [1]; in data set [2]; in data set [3]; in the data set with MYB CJ mRNA) was 100 to 1000 nM in each case. The GI50 at 72 h in data set [4] was 100 to 1000 nM.

Take `Cc1cn2cc(-c3cc4ccn(C5CCN(C)CC5)c(=O)c4s3)cc(F)c2n1` [Compound 808, 2-(8-fluoro-2-methylimidazo[1,2-a]pyridin-6-yl)-6-(1-methylpiperidin-4-yl)thieno[2,3-c]pyridin-7(6H)-one]: the IC50 lay in the range of 1000 to 10000 nM in data set [1], 100 to 1000 nM in data set [2], 100 to 1000 nM in data set [3] and 100 to 1000 nM with MYB CJ mRNA. For the same molecule, the GI50 at 72 h in data set [4] is 100 to 1000 nM.

For the molecule `Cc1cn2nc(-c3cc4ccn(C5CCN(C)CC5)c(=O)c4s3)cc(C)c2n1` [Compound 809], the IC50 (in data set [1]; in data set [2]; in data set [3]; in the data set on MYB CJ mRNA) was 1000 to 10000 nM in each case. In data set [4], this molecule had a GI50 at 72 h of 1000 to 10000 nM.

Regarding `Cc1cn2nc(-c3nc4cnn(C5CCNCC5)c(=O)c4s3)cc(C)c2n1` [Compound 810], the IC50 (in data set [1]; in data set [2]; in data set [3]; in the data set on MYB CJ mRNA) was 100 to 1000 nM in each case. The molecule further returned a GI50 at 72 h in data set [4] of 100 to 1000 nM.

With `Cc1nc(-c2nc3cnn(C4CCNCC4)c(=O)c3s2)cc2cn(C)nc12` [Compound 811], the IC50 in data set [1] was greater than 10000 nM; in data set [2] it was 1000 to 10000 nM; in data set [3] it was 1000 to 10000 nM; in the data set with MYB CJ mRNA, 1000 to 10000 nM. Besides, the GI50 at 72 h in data set [4] was 1000 to 10000 nM.

For `Cc1cn2cc(-c3nc4cnn(C5CCNCC5)c(=O)c4s3)nc(C)c2n1` [Compound 812, 2-(2,8-dimethylimidazo[1,2-a]pyrazin-6-yl)-6-(piperidin-4-yl)thiazolo[4,5-d]pyridazin-7(6H)-one], the IC50 in data set [1] is 100 to 1000 nM; in data set [2] it was 100 to 1000 nM; in data set [3], 100 to 1000 nM; with MYB CJ mRNA it was greater than 10000 nM. In data set [4], this molecule registered a GI50 at 72 h of 100 to 1000 nM.
